Read-outs that look alike come from different tables or passages of the source. Marks after values point to notes of the source that are not given here.
Experiments:
[1] = test system: A/Equine/2/Miami/63 (H3N8); assay: microbe, parasite or virus in culture; assay type: cell-based; details: Influenza A virus, H3N8, MDCK, read-out: Cell Protection Assay EC50 ± SD
B/Russia/69 = assay: microbe, parasite or virus in culture; assay type: cell-based; details: Influenza B virus, MDCK, read-out: Cell Protection Assay EC50 ± SD
A/Victoria/3/75 (H3N2) = assay: microbe, parasite or virus in culture; assay type: cell-based; details: Influenza A virus, MDCK, read-out: Cell Protection Assay EC50 ± SD
A/Mal/302/54 (H1N1) = assay: microbe, parasite or virus in culture; assay type: cell-based; details: Influenza A virus, MDCK, read-out: Cell Protection Assay EC50 ± SD
A/Missouri/3/2006 (H1N1) = assay: microbe, parasite or virus in culture; assay type: cell-based; details: Influenza A virus, MDCK, read-out: Cell Protection Assay EC50 ± SD
[2] = test system: Influenza A/Victoria/3/75 (H3N2) virus; assay type: in vivo, BALB/c mice
[3] = test system: Influenza A/California/04/2009 (pndH1N1) virus; assay type: in vivo, BALB/c mice
[4] = test system: influenza A/Wisconsin/67/2005 (H3N2) challenge strain virus; assay type: in vivo, humans (healthy volunteers); details: for Viral Shedding by Tissue Culture, AUC, median: Days 1-7
[5] = test system: A/Virginia/ATCC2/2009 (H1N1); assay: microbe, parasite or virus in culture; assay type: cell-based; details: Influenza A virus, MDCK, read-out: Cell Protection Assay EC50 ± SD
A/Florida/3/2006 (H1N1) = assay: microbe, parasite or virus in culture; assay type: cell-based; details: Influenza A virus, MDCK, read-out: Cell Protection Assay EC50 ± SD
influenza virus = test system: influenza virus; parameters: species or system mice; details: mouse, in vivo
[6] = test system: influenza A/Wisconsin/67/2005 (H3N2) challenge strain virus; assay type: in vivo, humans (healthy volunteers); details: for Composite Clinical Symptom, AUC, median / Influenza like Symptom, AUC, median: Day 1 through Day 7
[7] = test system: A/South Dakota/6/2007 (H1N1); assay: microbe, parasite or virus in culture; assay type: cell-based; details: Influenza A virus, MDCK, read-out: Cell Protection Assay EC50 ± SD
A/Denver/1/57 (H1N1) = assay: microbe, parasite or virus in culture; assay type: cell-based; details: Influenza A virus, MDCK, read-out: Cell Protection Assay EC50 ± SD
A/New Jersey/8/76 (H1N1) = assay: microbe, parasite or virus in culture; assay type: cell-based; details: Influenza A virus, H1N1, MDCK, read-out: Cell Protection Assay EC50 ± SD
[8] = 1 mg/kg p.o. twice a day for 10 days starting 2 hours prior to virus exposure
[9] = 3 mg/kg p.o. twice a day for 10 days starting 2 hours prior to virus exposure
[10] = 10 mg/kg p.o. twice a day for 10 days starting 2 hours prior to virus exposure
[11] = 100 mg QD 5 days, FA set N = 12
[12] = 400 mg QD 5 days, FA set N = 12
[13] = 900 mg Day 1, 600 mg Days 2-5, FA set N = 14
[14] = 1200 mg Day 1, 600 mg Days 2-5, FA set N = 14
[15] = pooled Compound (1) dose groups, FA set N = 52
[16] = 900 mg Day 1, 600 mg Days 2-5, N = 14
[17] = 1200 mg Day 1, 600 mg Days 2-5, N = 14
[18] = pooled Compound (1) dose groups, N = 52

In the case of `O=C(O)[C@H]1C2CCC(CC2)C1Nc1nc(-c2c[nH]c3ncc(F)cc23)ncc1F` (stereo partly shown) [Compound (1)], the EC50 [1] is reported as 0.5 ± 0.065 nM, the EC50 (B/Russia/69) is reported as over 10 nM and the EC50 (A/Victoria/3/75 (H3N2)) is reported as 1.3 ± 0.63 nM. The EC50 (A/Mal/302/54 (H1N1)) was 0.57 ± 0.055 nM, the EC50 (A/Missouri/3/2006 (H1N1)) was 0.21 ± 0.06 nM and the “MDD ± SD (mean day of death of mice that died on or before day 21)” value [2, 8] was 9.8 ± 1.9. The “Mean Lung Parameters (Day 6): Score (hemorrhage, 0 to 4)” value (from here on “Mean Lung Parameters (Day 6): Score”) [2, 8] was 3.2 ± 0.3^e, the “Mean Lung Parameters (Day 6): Virus Titer” value [2, 8] was 7.3 ± 0.3 Log10 CCID50/g and the “Mean Lung Parameters (Day 6): Weight” value [2, 8] was 274 ± 49 mg. For the same molecule, the Survivors/Total [2, 8] was 4/10, the “Mean Lung Parameters (Day 6): Score” value [2, 9] was 3.3 ± 0.6^e and the “Mean Lung Parameters (Day 6): Virus Titer” value [2, 9] was 7.2 ± 0.2 Log10 CCID50/g. For the same molecule, the “Mean Lung Parameters (Day 6): Weight” value [2, 9] was 260 ± 25 mg, the “Mean Lung Parameters (Day 6): Score” value [2, 10] was 0.1 ± 0.2^d and the “Mean Lung Parameters (Day 6): Virus Titer” value [2, 10] was 6.1 ± 0.5 Log10 CCID50/g. The “Mean Lung Parameters (Day 6): Weight” value [2, 10] was 164 ± 11 mg, the “Mean Lung Parameters (Day 6): Score” value [3, 8] was 0.6 and the “Mean Lung Parameters (Day 6): Virus Titer” value [3, 8] was 5.5 Log10 CCID50/g. The “Mean Lung Parameters (Day 6): Weight” value [3, 8] was 246 mg, the “Mean Lung Parameters (Day 6): Score” value [3, 9] was 0.0 and the “Mean Lung Parameters (Day 6): Virus Titer” value [3, 9] was 3.1 Log10 CCID50/g. The “Mean Lung Parameters (Day 6): Weight” value [3, 9] was 123 mg, the “Mean Lung Parameters (Day 6): Score” value [3, 10] was 0.2 and the “Mean Lung Parameters (Day 6): Virus Titer” value [3, 10] was <2.6^d*** Log10 CCID50/g. For the same molecule, the “Mean Lung Parameters (Day 6): Weight” value [3, 10] was 132 mg, the “Viral Shedding by Tissue Culture, Duration, median” value (“Viral Shedding … Duration, median” below) [4, 11] was 0.96 days and the “Viral Shedding by Tissue Culture, Peak, mean” value (shortened to “Viral Shedding … mean”) [4, 11] was 2.09 log10 TCID50/mL. For the same molecule, the “Viral Shedding by Tissue Culture, AUC, median” value (“Viral Shedding … AUC, median” for short) [4, 11] was 1.25 log10 TCID50 mL*Day, the “Viral Shedding … Duration, median” value [4, 12] was 1.60 days and the “Viral Shedding … mean” value [4, 12] was 1.73 log10 TCID50/mL. The “Viral Shedding … AUC, median” value [4, 12] was 0.70 log10 TCID50 mL*Day, the “Viral Shedding … Duration, median” value [4, 13] was 2.71 days and the “Viral Shedding … mean” value [4, 13] was 2.68 log10 TCID50/mL. For the same molecule, the “Viral Shedding … AUC, median” value [4, 13] was 3.20 log10 TCID50 mL*Day, the “Viral Shedding … Duration, median” value [4, 14] was 0.00 days and the “Viral Shedding … mean” value [4, 14] was 1.00 log10 TCID50/mL. For the same molecule, the “Viral Shedding … AUC, median” value [4, 14] was 0.35 log10 TCID50 mL*Day, the “Viral Shedding … Duration, median” value [4, 15] was 0.71 days and the “Viral Shedding … mean” value [4, 15] was 1.87 log10 TCID50/mL. The “Viral Shedding … AUC, median” value [4, 15] was 0.65 log10 TCID50 mL*Day, the EC50 [5] was 1.9 ± 3 nM and the EC50 (A/Florida/3/2006 (H1N1)) was 0.92 ± 1.5 nM. For the same molecule, the “half maximal reduction in lung titers” value (influenza virus) was 2-3 log, the “Composite Clinical Symptom, Duration, median” value ([6]; 100 mg QD 5 days, N = 12) was 3.21 days and the “Composite Clinical Symptom, Peak, mean” value ([6]; 100 mg QD 5 days, N = 12) was 3.17 Grade. For the same molecule, the “Influenza like Symptom, Duration, median” value ([6]; 100 mg QD 5 days, N = 12) was 3.21 days, the “Influenza like Symptom, Peak, mean” value ([6]; 100 mg QD 5 days, N = 12) was 2.75 Grade and the “Composite Clinical Symptom, AUC, median” value ([6]; 100 mg QD 5 days, N = 12) was 1.85 Grade*Day. The “Influenza like Symptom, AUC, median” value ([6]; 100 mg QD 5 days, N = 12) was 1.85 Grade*Day, the “Composite Clinical Symptom, Duration, median” value ([6]; 400 mg QD 5 days, N = 12) was 3.34 days and the “Composite Clinical Symptom, Peak, mean” value ([6]; 400 mg QD 5 days, N = 12) was 2.83 Grade. The “Influenza like Symptom, Duration, median” value ([6]; 400 mg QD 5 days, N = 12) was 3.34 days, the “Influenza like Symptom, Peak, mean” value ([6]; 400 mg QD 5 days, N = 12) was 2.42 Grade and the “Composite Clinical Symptom, AUC, median” value ([6]; 400 mg QD 5 days, N = 12) was 4.70 Grade*Day. The “Influenza like Symptom, AUC, median” value ([6]; 400 mg QD 5 days, N = 12) was 3.80 Grade*Day, the “Composite Clinical Symptom, Duration, median” value [6, 16] was 2.69 days and the “Composite Clinical Symptom, Peak, mean” value [6, 16] was 3.71 Grade. For the same molecule, the “Influenza like Symptom, Duration, median” value [6, 16] was 2.69 days, the “Influenza like Symptom, Peak, mean” value [6, 16] was 3.21 Grade and the “Composite Clinical Symptom, AUC, median” value [6, 16] was 1.75 Grade*Day. The “Influenza like Symptom, AUC, median” value [6, 16] was 1.75 Grade*Day, the “Composite Clinical Symptom, Duration, median” value [6, 17] was 1.88 days and the “Composite Clinical Symptom, Peak, mean” value [6, 17] was 1.50 Grade. The “Influenza like Symptom, Duration, median” value [6, 17] was 1.88 days, the “Influenza like Symptom, Peak, mean” value [6, 17] was 1.36 Grade and the “Composite Clinical Symptom, AUC, median” value [6, 17] was 1.95 Grade*Day. The “Influenza like Symptom, AUC, median” value [6, 17] was 1.75 Grade*Day, the “Composite Clinical Symptom, Duration, median” value [6, 18] was 2.34 days and the “Composite Clinical Symptom, Peak, mean” value [6, 18] was 2.79 Grade. The “Influenza like Symptom, Duration, median” value [6, 18] was 2.34 days, the “Influenza like Symptom, Peak, mean” value [6, 18] was 2.42 Grade and the “Composite Clinical Symptom, AUC, median” value [6, 18] was 2.15 Grade*Day. For the same molecule, the “Influenza like Symptom, AUC, median” value [6, 18] was 2.05 Grade*Day, the EC50 [7] was 0.31 ± 0.25 nM and the EC50 (A/Denver/1/57 (H1N1)) was 0.42 ± 0.19 nM. For the same molecule, the EC50 (A/New Jersey/8/76 (H1N1)) was 0.2 ± 0.096 nM.

Reference: patent publication US20160250213A1, “FORMULATIONS OF AZAINDOLE COMPOUNDS” (priority 2013, published 2016)
